Our source for the IC50 values is patent publication US11485735B2, “Selective CDK4/6 inhibitor and preparation thereof” (Wuxi Shuangliang Biotechnology Co., Ltd., priority 2019, dated 2022).

One test addresses T1, CDK4/CyclinD3 (Homo sapiens, UniProt P11802).
T1 construct: purchased Wuxi Biortus Biosciences Co. Ltd
The test is described as follows: In-vitro kinase inhibitory activity, CDK4/CyclinD3 (Caliper EZ Reader II mobility shift). The test is classed as biochemical. Particulars: CDK4/CyclinD3 20 nM, ATP 2 mM, Peptide 1 μM, 27° C., 180 min; read-out: IC50 (half maximal inhibitory concentration, nM) CDK4. The procedure: The final volume for assay was 16 μL, and the reaction temperature was 27° C. CDK4/CyclinD3 was produced by Wuxi Biortus Biosciences Co. Ltd. The concentration of the kinase was determined by the results of the optimization experiment. The kinase was diluted with an assay buffer (50 mM Tris HCl pH 8.0, 0.01% Tween 20, 50 μg/mL BSA, and 5 mM MgCl2) to obtain a corresponding kinase solution (2.4× concentration). The compound was dissolved in dimethyl sulfoxide (DMSO) to reach a concentration of 10 mM. […] 2 μL of the test compound solution was mixed with 5 μL of the kinase solution, and the mixture was incubated for 10 min. 5 μL of the mixed solution of the polypeptide substrate and ATP was then added. The mixture was incubated at 27° C. for 180 min, and then the reaction was terminated by adding 4 μL of EDTA with a concentration of 120 mM to each sample. […] Each assay was conducted in at least two replicates.
(§1) The final concentrations of the reagents in the assay were as follows. […] The reaction mixture was analyzed on a Caliper EZ Reader II by electrophoretic separation of the fluorescent substrate and the phosphorylated product. Data were calculated by using GraphPad Prism version 6.0 and IC50 values were obtained by adjusting the non-linear regression models of the dose response curves.

The target of another test is CDK9 (Homo sapiens, UniProt P50750). Kind of test: In-vitro kinase inhibitory activity, CDK9 (selectivity). It counts as biochemical. The conditions noted are these: read-out: IC50 (half maximal inhibitory concentration, nM) CDK9.
A further test has as its target T2, CDK6/CyclinD3 (Homo sapiens, UniProt Q00534).
T2 construct: purchased Wuxi Biortus Biosciences Co. Ltd
The test is described as follows: In-vitro kinase inhibitory activity, CDK6/CyclinD3 (Caliper EZ Reader II mobility shift). It counts as biochemical. Particulars: CDK6/CyclinD3 20 nM, ATP 2 mM, Peptide 1 μM, 27° C., 120 min; read-out: IC50 (half maximal inhibitory concentration, nM) CDK6. As for the experimental part: The final volume for assay was 16 μL, and the reaction temperature was 27° C. […] The compound was dissolved in dimethyl sulfoxide (DMSO) to reach a concentration of 10 mM. […] 2 μL of the test compound solution was mixed with 5 μL of the kinase solution, and the mixture was incubated for 10 min. 5 μL of the mixed solution of the polypeptide substrate and ATP was then added. The mixture was incubated at 27° C. for 120 min, and then the reaction was terminated by adding 4 μL of EDTA with a concentration of 120 mM to each sample. […] Each assay was conducted in at least two replicates.
as §1

Test [1] has as its system human colon cancer COLO205 cells. The test is described as follows: Growth inhibition of tumor cells cultured in vitro, CellTiter-Glo, COLO205. The conditions noted are these: Homo sapiens, COLO 205, 72 h, COLO205, 72 h, CellTiter-Glo. The test is classed as cell-based. The source says:
Test drugs: Compounds of the present disclosure. Tumor cell strains: human colon cancer COLO205 cells and human breast cancer MCF-7 cells.
The growth inhibitory effects on human tumor cells COLO205 and MCF-7 cultured in vitro were observed by using a CellTiter-Glo Luminescent Cell Viability Assay Kit (Promega, Cat. No. G7572). Human tumor cells COLO205 and MCF-7 were both purchased from the American Type Culture Collection.
CellTiter-Glo Luminescent Cell Viability Assay: The previous cell culture medium was discarded, and the tumor cells were rinsed twice with PBS. An appropriate amount of trypsin (VWR, Cat. No. 0458-25G) was added to digest the tumor cells until most of the cells turned round and were detached from the wall. The trypsin digestion was terminated by adding an RPMI-1640 medium (COLO205; Gibco, Cat. No. A10491-01) containing 10% fetal bovine serum (Hyclone, Cat. No. SV30160.03) and MEM medium (MCF-7; Gibco, Cat. No. 10370-021) containing 10% fetal bovine serum and 0.01 mg/mL insulin, and the cells were gently pipetted with a pipette to completely suspend the tumor cells. After cell counting, a tumor cell suspension was prepared using a complete culture medium and the final concentration was 6.7×10^4 cells/mL. 90 μL of the tumor cell suspension was seeded in each well of a 96-well culture plate (6000 cells/well). The plate was then placed in an incubator with 5% CO2 at 37° C. and incubated for 24 h. A test drug was added by using an Agilent Bravo Automated Liquid Handling Platform, and 10 μL of the sample was added in each well. The assay was conducted in triplicate for each group. A compound of the present disclosure was dissolved in DMSO (BioRoYee, Cat. No. AF0231), and then the resulting solution was diluted to 10 μM/L, 3.33 μM/L, 1.11 μM/L, 0.37 μM/L, 0.123 μM/L, 0.041 μM/L, 0.0137 μM/L, 0.0046 μM/L, and 0.0015 μM/L with the culture medium. The concentration of DMSO was lower than 0.1%, and a culture medium containing 0.1% DMSO was added to the well which was set as a vehicle control group. The 96-well plate was placed in an incubator with 5% CO2 at 37° C. and incubated for 72 h. The 96-well plate to be tested was equilibrated at room temperature for 30 min, and 100 μL of Cell Titer-Glo reagent was added to each well. The contents of each well were mixed in an orbital shaker for 2 min to induce cell lysis, and the plate was incubated at room temperature for 10 min to achieve a constant value of fluorescent intensity. Finally, the chemiluminescence intensity was detected by TECAN M1000. Data were processed with Graphpad Prism 6.0 software. The growth curve of the cells was plotted. The cell growth inhibition rate of a drug was calculated, and the half maximal inhibitory concentration (IC50) of the drug was determined.

Structures can show the parent of a compound that is named as a salt.

Chain of CDK9 (P50750 whole entry, species assumed): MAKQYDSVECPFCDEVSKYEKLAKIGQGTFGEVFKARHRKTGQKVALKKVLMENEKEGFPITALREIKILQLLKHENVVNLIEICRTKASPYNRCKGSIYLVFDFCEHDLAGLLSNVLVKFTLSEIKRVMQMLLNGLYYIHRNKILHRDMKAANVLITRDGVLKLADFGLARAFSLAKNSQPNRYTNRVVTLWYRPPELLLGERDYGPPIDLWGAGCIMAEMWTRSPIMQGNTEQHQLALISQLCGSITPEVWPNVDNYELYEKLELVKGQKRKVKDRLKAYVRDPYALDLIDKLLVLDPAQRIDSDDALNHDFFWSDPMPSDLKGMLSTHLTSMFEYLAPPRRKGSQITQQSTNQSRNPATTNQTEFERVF
Chain of CDK9 (O60563 whole entry partner, species assumed): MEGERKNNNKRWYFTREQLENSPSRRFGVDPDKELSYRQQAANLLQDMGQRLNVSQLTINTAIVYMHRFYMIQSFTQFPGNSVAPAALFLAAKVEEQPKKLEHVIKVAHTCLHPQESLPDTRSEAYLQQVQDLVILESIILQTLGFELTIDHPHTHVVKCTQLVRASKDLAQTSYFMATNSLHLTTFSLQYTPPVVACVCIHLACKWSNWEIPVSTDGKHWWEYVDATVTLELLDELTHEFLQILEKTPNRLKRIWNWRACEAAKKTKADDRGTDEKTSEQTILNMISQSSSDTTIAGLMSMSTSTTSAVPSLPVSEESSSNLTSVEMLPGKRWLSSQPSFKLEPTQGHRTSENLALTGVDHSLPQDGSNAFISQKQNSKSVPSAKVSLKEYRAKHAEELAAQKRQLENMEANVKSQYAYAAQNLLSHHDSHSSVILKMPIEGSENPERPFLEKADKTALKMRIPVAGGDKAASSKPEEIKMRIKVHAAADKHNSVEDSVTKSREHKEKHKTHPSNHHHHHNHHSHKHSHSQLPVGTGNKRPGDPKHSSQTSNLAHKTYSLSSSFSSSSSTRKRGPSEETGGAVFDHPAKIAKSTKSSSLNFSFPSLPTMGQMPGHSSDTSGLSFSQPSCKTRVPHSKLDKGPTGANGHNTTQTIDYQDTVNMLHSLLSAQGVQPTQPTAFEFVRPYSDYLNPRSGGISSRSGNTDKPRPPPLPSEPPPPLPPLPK
T2 sequence (Q00534 whole entry, species assumed): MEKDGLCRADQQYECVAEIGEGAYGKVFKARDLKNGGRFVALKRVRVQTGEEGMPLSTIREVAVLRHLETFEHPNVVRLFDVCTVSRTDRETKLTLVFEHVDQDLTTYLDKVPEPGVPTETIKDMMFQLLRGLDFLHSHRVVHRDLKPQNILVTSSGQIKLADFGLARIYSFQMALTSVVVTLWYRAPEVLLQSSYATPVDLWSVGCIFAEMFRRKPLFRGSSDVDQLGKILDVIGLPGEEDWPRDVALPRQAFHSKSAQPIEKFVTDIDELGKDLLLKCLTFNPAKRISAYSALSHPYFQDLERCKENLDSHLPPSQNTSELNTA
T2 sequence (P30281 whole entry partner, species assumed): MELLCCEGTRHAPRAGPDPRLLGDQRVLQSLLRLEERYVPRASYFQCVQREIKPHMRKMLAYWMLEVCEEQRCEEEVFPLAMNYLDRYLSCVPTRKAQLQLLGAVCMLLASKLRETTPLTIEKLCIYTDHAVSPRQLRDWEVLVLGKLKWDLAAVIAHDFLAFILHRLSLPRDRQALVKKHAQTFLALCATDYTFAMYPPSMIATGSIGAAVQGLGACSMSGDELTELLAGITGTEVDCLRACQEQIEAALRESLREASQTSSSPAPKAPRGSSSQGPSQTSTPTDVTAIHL
T1 sequence (P11802 whole entry, species assumed): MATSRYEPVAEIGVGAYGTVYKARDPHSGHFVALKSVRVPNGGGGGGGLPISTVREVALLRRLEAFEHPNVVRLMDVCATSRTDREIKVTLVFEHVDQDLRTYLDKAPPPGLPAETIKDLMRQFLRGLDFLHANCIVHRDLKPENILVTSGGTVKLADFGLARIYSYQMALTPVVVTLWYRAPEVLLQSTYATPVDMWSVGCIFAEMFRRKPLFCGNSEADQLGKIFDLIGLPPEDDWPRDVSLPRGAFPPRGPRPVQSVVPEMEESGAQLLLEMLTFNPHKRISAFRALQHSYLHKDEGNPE
T1 sequence (P30281 whole entry partner, species assumed): as the sequence (P30281 whole entry partner, species assumed) above

On to `CC(=O)c1c(C)c2cnc(Nc3ccc(N4CCN(CCC5CCN(c6ccc7c(c6)CN(C6CCC(=O)NC6=O)C7=O)CC5)CC4)cn3)nc2n(C2CCCC2)c1=O` (stereo not drawn) [Compound 13, 3-(5-(4-(2-(4-(6-((6-acetyl-8-cyclopentyl-5-methyl-7-oxo-7,8-dihydropyrido[2,3-d]pyrimidin-2-yl)amino)pyridin-3-yl)piperazin-1-yl)ethyl)piperidin-1-yl)-1-oxoisoindolin-2-yl)piperidine-2,6-dione], for which the IC50 was 71.1 nM at CDK4/CyclinD3, > 10000 nM on CDK9, 26.6 nM at CDK6/CyclinD3 and 59.4 nM in test [1].
Take `COc1cc(N2CCN(CCN3CCN(c4ccc(Nc5ncc6c(C)c(C(C)=O)c(=O)n(C7CCCC7)c6n5)nc4)CC3)CC2)cc2c1C(=O)N(C1CCC(=O)NC1=O)C2` (stereo not drawn) [Compound 17, 3-(5-(4-(2-(4-(6-((6-acetyl-8-cyclopentyl-5-methyl-7-oxo-7,8-dihydropyrido[2,3-d]pyrimidin-2-yl)amino)pyridin-3-yl)piperazin-1-yl)ethyl)piperazin-1-yl)-7-methoxy-1-oxoisoindolin-2-yl)piperidine-2,6-dione dihydrochloride]: the IC50 is 67.1 nM on CDK4/CyclinD3, > 10000 nM at CDK9 and 29.6 nM at CDK6/CyclinD3.
For `CC(=O)c1c(C)c2cnc(Nc3ccc(N4CCN(CCN5CCN(c6ccc7c(c6Cl)CN(C6CCC(=O)NC6=O)C7=O)CC5)CC4)cn3)nc2n(C2CCCC2)c1=O` (stereo not drawn) [Compound 21, 3-(5-(4-(2-(4-(6-((6-acetyl-8-cyclopentyl-5-methyl-7-oxo-7,8-dihydropyrido[2,3-d]pyrimidin-2-yl)amino)pyridin-3-yl)piperazin-1-yl)ethyl)piperazin-1-yl)-4-chloro-1-oxoisoindolin-2-yl)piperidine-2,6-dione dihydrochloride], the IC50 at CDK4/CyclinD3 came out at 53.2 nM; on CDK9 it was 3950 nM; on CDK6/CyclinD3, 37.1 nM.
As for `CN(C)C(=O)c1cc2cnc(Nc3ccc(N4CCN(CCN5CCC(CN6CCN(c7ccc8c(c7)CN(C7CCC(=O)NC7=O)C8=O)CC6)CC5)CC4)cn3)nc2n1C1CCCC1` (stereo not drawn) [Compound 26, 7-cyclopentyl-2-((5-(4-(2-(4-((4-(2-(2,6-dioxopiperidin-3-yl)-1-oxoisoindolin-5-yl)piperazin-1-yl)methyl)piperidin-1-yl)ethyl)piperazin-1-yl)pyridin-2-yl)amino)-N,N-dimethyl-7H-pyrrolo[2,3-d]pyrimidin-6-amide trihydrochloride], the IC50 at CDK4/CyclinD3 turned out to be 38.4 nM; on CDK9 it was 4000 nM; at CDK6/CyclinD3 it was 55.2 nM.
For `CC(=O)c1c(C)c2cnc(Nc3ccc(N4CCN(CCN5CCC(CN6CCN(c7ccc8c(c7Cl)CN(C7CCC(=O)NC7=O)C8=O)CC6)CC5)CC4)cn3)nc2n(C2CCCC2)c1=O` (stereo not drawn) [Compound 36, 3-(5-(4-((1-(2-(4-(6-((6-acetyl-8-cyclopentyl-5-methyl-7-oxo-7,8-dihydropyrido[2,3-d]pyrimidin-2-yl)amino)pyridin-3-yl)piperazin-1-yl)ethyl)piperidin-4-yl)methyl)piperazin-1-yl)-4-chloro-1-oxoisoindolin-2-yl)piperidine-2,6-dione trihydrochloride], the IC50 stood at 12.7 nM on CDK4/CyclinD3, 1480 nM on CDK9, 4.44 nM at CDK6/CyclinD3 and 95.9 nM in test [1].
On to `CC(=O)c1c(C)c2cnc(Nc3ccc(N4CCN(CCN5CCC(CC6CCN(c7ccc8c(c7)CN([C@H]7CCC(=O)NC7=O)C8=O)CC6)CC5)CC4)cn3)nc2n(C2CCCC2)c1=O` [Compound 38, (S)-3-(5-(4-((1-(2-(4-(6-((6-acetyl-8-cyclopentyl-5-methyl-7-oxo-7,8-dihydropyrido[2,3-d]pyrimidin-2-yl)amino)pyridin-3-yl)piperazin-1-yl)ethyl)piperidin-4-yl)methyl)piperidin-1-yl)-1-oxoisoindolin-2-yl)piperidine-2,6-dione dihydrochloride], for which the IC50 came to 8.88 nM on CDK4/CyclinD3, 1400 nM on CDK9, 6.73 nM on CDK6/CyclinD3 and 76.2 nM in test [1].
Consider `CC(=O)c1c(C)c2cnc(Nc3ccc(N4CCN(CCN5CCC(CC6CCN(c7ccc8c(c7Cl)CN(C7CCC(=O)NC7=O)C8=O)CC6)CC5)CC4)cn3)nc2n(C2CCCC2)c1=O` (stereo not drawn) [Compound 39, 3-(5-(4-((1-(2-(4-(6-((6-acetyl-8-cyclopentyl-5-methyl-7-oxo-7,8-dihydropyrido[2,3-d]pyrimidin-2-yl)amino)pyridin-3-yl)piperazin-1-yl)ethyl)piperidin-4-yl)methyl)piperidin-1-yl)-4-chloro-1-oxoisoindolin-2-yl)piperidine-2,6-dione dihydrochloride], for which the IC50 on CDK4/CyclinD3 worked out at 56.1 nM; at CDK9, 5760 nM; at CDK6/CyclinD3, 11.3 nM; in test [1] it was 440 nM.
The corresponding values for `CC(=O)c1c(C)c2cnc(Nc3ccc(N4CCN(CCN5CCC(CC6CCN(c7ccc8c(c7Cl)CN([C@H]7CCC(=O)NC7=O)C8=O)CC6)CC5)CC4)cn3)nc2n(C2CCCC2)c1=O` [Compound 40, (S)-3-(5-(4-((1-(2-(4-(6-((6-acetyl-8-cyclopentyl-5-methyl-7-oxo-7,8-dihydropyrido[2,3-d]pyrimidin-2-yl)amino)pyridin-3-yl)piperazin-1-yl)ethyl)piperidin-4-yl)methyl)piperidin-1-yl)-4-chloro-1-oxoisoindolin-2-yl)piperidine-2,6-dione dihydrochloride] are 55 nM, 6810 nM, 23.3 nM and 50.9 nM.
As to `CC(=O)c1c(C)c2cnc(Nc3ccc(N4CCC(CCN5CCC(CC6CCN(c7ccc8c(c7)CN(C7CCC(=O)NC7=O)C8=O)CC6)CC5)CC4)cn3)nc2n(C2CCCC2)c1=O` (stereo not drawn) [Compound 42, 3-(5-(4-((1-(2-(1-(6-((6-acetyl-8-cyclopentyl-5-methyl-7-oxo-7,8-dihydropyrido[2,3-d]pyrimidin-2-yl)amino)pyridin-3-yl)piperidin-4-yl)ethyl)piperidin-4-yl)methyl)piperidin-1-yl)-1-oxoisoindolin-2-yl)piperidine-2,6-dione hydrochloride], the IC50 was 33.3 nM at CDK4/CyclinD3, > 10000 nM at CDK9, 19.2 nM at CDK6/CyclinD3 and 194 nM in test [1].
